Values belong to the compound of their own block, whether it stands above or below them.
Tests used:
[1] = Oral Bioavailability in rat; type: ADME, organism-based; conditions: in vivo
[2] = Half life in rat; type: ADME; conditions: in vivo
[3] = Half life in iv dosed rat; type: ADME, organism-based; conditions: in vivo
[4] = AUC in iv dosed rat; type: ADME, organism-based; design: route iv; conditions: in vivo
[5] = Bioavilability in iv dosed rat; type: ADME, organism-based; conditions: in vivo
[6] = Tmax in iv dosed rat; type: ADME, organism-based; conditions: in vivo
[7] = Cmax in iv dosed rat; type: ADME, organism-based; design: route iv; conditions: in vivo
[8] = Clearance in rat at 1 mg/kg, iv measured after 24 hrs by LC/MS/MS analysis; type: ADME, organism-based; conditions: in vivo
[9] = Tmax in Cynomolgus monkey at 10 mg/kg, po measured after 24 hrs by LC/MS/MS analysis; type: ADME, organism-based, Macaca fascicularis; conditions: in vivo
[10] = Oral bioavailability in Cynomolgus monkey at 10 mg/kg measured after 24 hrs by LC/MS/MS analysis; type: ADME, organism-based, Macaca fascicularis; conditions: in vivo
[11] = Oral bioavailability in dog at 3 mg/kg measured after 24 hrs by LC/MS/MS analysis; type: ADME, organism-based, Canis lupus familiaris; conditions: in vivo
[12] = Cmax in dog at 3 mg/kg, po measured after 24 hrs by LC/MS/MS analysis; type: ADME, organism-based, Canis lupus familiaris; design: time 24 hrs, dose 3 mg/kg, route po; conditions: in vivo
[13] = Tmax in rat at 10 mg/kg, po measured after 24 hrs by LC/MS/MS analysis; type: ADME, organism-based; conditions: in vivo
[14] = Cmax in rat at 10 mg/kg, po measured after 24 hrs by LC/MS/MS analysis; type: ADME, organism-based; design: dose 10 mg/kg, time 24 hrs, route po; conditions: in vivo
[15] = Half life in rat at 10 mg/kg, po measured after 24 hrs by LC/MS/MS analysis; type: ADME, organism-based; conditions: in vivo
[16] = Volume of distribution in rat at 1 mg/kg, iv measured after 24 hrs by LC/MS/MS analysis; type: ADME, organism-based; conditions: in vivo
[17] = Cmax in Cynomolgus monkey at 10 mg/kg, po measured after 24 hrs by LC/MS/MS analysis; type: ADME, organism-based, Macaca fascicularis; design: dose 10 mg/kg, time 24 hrs, route po; conditions: in vivo
[18] = AUC in dog at 3 mg/kg, po measured after 24 hrs by LC/MS/MS analysis; type: ADME, organism-based, Canis lupus familiaris; design: dose 3 mg/kg, time 24 hrs, route po; conditions: in vivo
[19] = Half life in dog at 3 mg/kg, po measured after 24 hrs by LC/MS/MS analysis; type: ADME, organism-based, Canis lupus familiaris; conditions: in vivo
[20] = Oral bioavailability in rat at 10 mg/kg measured after 24 hrs by LC/MS/MS analysis; type: ADME, organism-based; conditions: in vivo
[21] = Clearance in Cynomolgus monkey at 10 mg/kg, po measured after 24 hrs by LC/MS/MS analysis; type: ADME, organism-based, Macaca fascicularis; conditions: in vivo
[22] = Clearance in dog at 3 mg/kg, po measured after 24 hrs by LC/MS/MS analysis; type: ADME, organism-based, Canis lupus familiaris; conditions: in vivo
[23] = Tmax in dog at 3 mg/kg, po measured after 24 hrs by LC/MS/MS analysis; type: ADME, organism-based, Canis lupus familiaris; conditions: in vivo
[24] = AUC in rat at 10 mg/kg, po measured after 24 hrs by LC/MS/MS analysis; type: ADME, organism-based; design: dose 10 mg/kg, time 24 hrs, route po; conditions: in vivo
[25] = Half life in Cynomolgus monkey at 10 mg/kg, po measured after 24 hrs by LC/MS/MS analysis; type: ADME, organism-based, Macaca fascicularis; conditions: in vivo
[26] = Volume of distribution in dog at 3 mg/kg, po measured after 24 hrs by LC/MS/MS analysis; type: ADME, organism-based, Canis lupus familiaris; conditions: in vivo
[27] = Half life in rat at 1 mg/kg, iv measured after 24 hrs by LC/MS/MS analysis; type: ADME, organism-based; conditions: in vivo
[28] = Volume of distribution in Cynomolgus monkey at 10 mg/kg, po measured after 24 hrs by LC/MS/MS analysis; type: ADME, organism-based, Macaca fascicularis; conditions: in vivo
[29] = AUC in Cynomolgus monkey at 10 mg/kg, po measured after 24 hrs by LC/MS/MS analysis; type: ADME, organism-based, Macaca fascicularis; design: dose 10 mg/kg, time 24 hrs, route po; conditions: in vivo
[30] = Oral bioavailability in rat at 1 mg/kg measured after 24 hrs by LC/MS/MS analysis; type: ADME, organism-based; conditions: in vivo
[31] = AUC in rat at 1 mg/kg, iv measured after 24 hrs by LC/MS/MS analysis; type: ADME, organism-based; design: dose 1 mg/kg, time 24 hrs, route iv; conditions: in vivo
[32] = Oral bioavailability in Sprague-Dawley rat at 5 mg/kg measured at 0.083 to […] by Liquid chromatography coupled with tandem mass spectrometry analysis; type: ADME, organism-based; conditions: in vivo, time 0.083-0.25 hrs
[33] = Half life in Sprague-Dawley rat at 5 mg/kg, po measured at 0.083 to […] by Liquid chromatography coupled with tandem mass spectrometry analysis; type: ADME, organism-based; conditions: in vivo, time 0.083-0.25 hrs
[34] = Half life in rat at 1 mg/kg, iv measured after 0.083 hrs by liquid chromatography tandem mass spectrometry analysis; type: ADME, organism-based; conditions: in vivo
[35] = Oral bioavailability in rat at 2 mg/kg measured at 0.25 to 168 hrs by liquid chromatography tandem mass spectrometry analysis; type: ADME, organism-based; conditions: in vivo, time 0.25-168 hrs
[36] = Half life in mouse at 1 mg/kg, iv measured after 0.083 hrs by liquid chromatography tandem mass spectrometry analysis; type: ADME, organism-based; conditions: in vivo
[37] = Half life in dog at 0.5 mg/kg, iv measured after 0.083 hrs by liquid chromatography tandem mass spectrometry analysis; type: ADME, organism-based, Canis lupus familiaris; conditions: in vivo
[38] = Clearance in rat at 1 mg/kg, iv measured after 0.083 hrs by liquid chromatography tandem mass spectrometry analysis; type: ADME, organism-based; conditions: in vivo
[39] = Half life in monkey at 0.5 mg/kg, iv measured after 0.083 hrs by liquid chromatography tandem mass spectrometry analysis; type: ADME, organism-based, Macaca mulatta; conditions: rhesus monkey, in vivo

SMILES: N[C@H]1C[C@@H](N2Cc3nn4c(C(F)(F)F)cc(C(F)(F)F)nc4c3C2)CO[C@@H]1c1cc(F)ccc1F
half-life [2]: 25.4 h
bioavailability [1]: 71%
half-life [3]: 25.4 h
AUC [4]: 3.7 µg·h/mL
bioavailability [5]: 71%
Tmax [6]: 5.3 h
Cmax [7]: 0.119 µg/mL

SMILES: Cn1c(=O)cc(N2CCC[C@@H](N)C2)n(Cc2ccccc2C#N)c1=O [ALOGLIPTIN]
clearance [8]: 2.94 L/h/kg
Tmax [9]: 1 h
bioavailability [10]: 87%
bioavailability [11]: 68%
Cmax [12]: 0.447 µg/mL
Tmax [13]: 2.3 h
Cmax [14]: 0.393 µg/mL
half-life [15]: 2.8 h
Vd [16]: 3.5 L/kg
Cmax [17]: 3.21 µg/mL
AUC at 24 h [18]: 1.6 µg·h/mL
half-life [19]: 3 h
bioavailability [20]: 45%
CL/F [21]: 0.528 L/h/kg
CL/F [22]: 1.38 L/h/kg
Tmax [23]: 0.4 h
AUC at 24 h [24]: 1.2 µg·h/mL
half-life [25]: 5.6 h
Vd [26]: 3.5 L/kg
half-life [27]: 1.4 h
Vd [28]: 2.6 L/kg
AUC at 24 h [29]: 16.6 µg·h/mL
bioavailability [30]: 86%
AUC at 24 h [31]: 0.26 µg·h/mL

SMILES: N[C@@H](CC(=O)N1CCSC1)Cc1cc(F)c(F)cc1F
half-life [2]: 1.1 h
bioavailability [1]: 3%

SMILES: N#Cc1ccc(F)cc1Cn1c(N2CCC[C@@H](N)C2)nc2cc(-c3cccnc3)sc2c1=O
bioavailability [32]: 94%
half-life [33]: 16.4 h

Continued, values first:

bioavailability [1]: < 1%
SMILES: CS(=O)(=O)Nc1cccc(NC(=O)CN2CCN(C(=O)C[C@H](N)Cc3ccccc3F)[C@H](Cc3ccccc3)C2)c1

half-life [2]: 7.3 h
SMILES: CC#CCn1c(N2CCC[C@@H](N)C2)nc2c1c(=O)n(Cc1nc3cc(F)ccc3s1)c(=O)n2C

half-life [34]: 28 h
bioavailability [35]: 91%
half-life [36]: 44.4 h
half-life [37]: 52.8 h
clearance [38]: 1.14 L/h/kg
half-life [39]: 61.1 h
SMILES: N[C@H]1C[C@@H](N2CC3=C(C2)CS(=O)(=O)C3)CO[C@@H]1c1cc(F)ccc1F

From ChEMBL document CHEMBL5365448, “Development of Long-Acting Dipeptidyl Peptidase-4 Inhibitors: Structural Evolution and Long-Acting Determinants” (J Med Chem, 2023)
